# System: Platelet
# Assay: Inhibition of arachidonic acid-induced platelets aggregation by turbidimetry
# Format: functional, cell-based
row,IC50,SMILES
1,1.67 µM,C=C(C)C(O)Cc1cc(-c2cc(=O)c3c(O)cc(O)cc3o2)cc(CC=C(C)C)c1O (configuration not stated) [YINYANGHUO B]
2,7.14 µM,C=C(C)C(O)Cc1cc(-c2cc(=O)c3c(O)cc(O)cc3o2)cc2c1OC(C)(C)C=C2 (configuration not stated) [YINYANGHUO A]

# Reference: ChEMBL document CHEMBL1158238, “New prenylflavones from the leaves of Epimedium saggitatum” (J Nat Prod, 1996)
